Experimental data: article PMC8780580, “The Neuroactive Steroid Pregnanolone Glutamate: Anticonvulsant Effect, Metabolites and Its Effect on Neurosteroid Levels in Developing Rat Brains” (Pharmaceuticals, 2021)
Where a name gives a salt, the structure may show the parent alone.

Tests used:
α4β3γ2 GABAARs = tested on: α4β3γ2 GABAARs; design: method as in PMID 15294445; details: at 100 μM; cited from earlier work
[1] = Steroidomic (GC-MS/MS) analysis of hippocampal tissue after PA-G administration; details: for fold increase in the concentration in the rat hippocampus above the basal levels / percentage of total significantly increased (5β) steroids in the rat hippocampus / concentration at 20 min: 20 min after PA-G i.p., 1 mg/kg in CDX; for increase in concentration compared with basal levels: after PA-G i.p.; for increase in concentration compared with basal levels / concentration at 20 min: 1 mg/kg; for concentration at 20 min: male, Wistar, rat, in vivo, ip, Steroid concentration in hippocampal tissue, PA-G-Treated (P);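 for all read-outs here: hippocampal steroids quantified by GC-MS/MS, covering free and conjugated forms after hydrolysis, compared against intact rats and rats injected with CDX vehicle alone, five animals per group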
Description: In a separate experiment, samples of the hippocampus were obtained from male albino Wistar rats in 6 experimental groups consisting of P12 and P25 animals that were either intact (I), controls (C, i.p. application of a solution of CDX), or in the experimental group (i.p. application of PA-G in a solution of CDX at a dose of 1 mg/kg). Each group consisted of 5 animals. The animals were sacrificed using ether anaesthesia (Penta, Czech Republic) 30 min after administration of the drug. The hippocampi were quickly removed, weighed, and frozen at −80 °C in sterile plastic microvials until analysis.
An amount of 17–100 mg of the hippocampal tissue was minced and then administered into screw-cap tubes. Next, 2 mL of methanol with a mixture of internal standards was added, and the samples were incubated for 1 week in a refrigerator at 4 °C with agitation for 2 min once a day. Afterwards, the extract was transferred into new screw-cap tubes and dried in a vacuum centrifuge at 45 °C. After that, 1 mL of water of chromatographic purity was added, and the samples were further treated as described in our recently published paper [76].
Briefly, the unconjugated steroids were extracted from a testing sample with diethyl-ether, the extract was dried, and the lipids were separated by partitioning between a mixture of methanol with water (4:1, v/v) and pentane. The pentane phase was discarded, and the polar phase was dried and used for further analysis of the unconjugated steroids. Steroid conjugates remaining in the polar residue after diethyl ether were hydrolyzed to their parent hydroxy steroids (unconjugated molecules) and analyzed.

α4β3δ GABAARs = tested on: α4β3δ GABAARs; design: method as in PMID 15294445; details: cited from earlier work
[2] = within 0.5 min of uptake; cited from earlier work
GABAARs = details: allosteric displacement of [35S]-TBPS from the picrotoxin binding site on GABAARs; cited from earlier work
[3] = tested on: pentylenetetrazol-induced seizures; assay: Pentylenetetrazol (PTZ)-induced seizures in 12- and 25-day-old rats; type: in vivo, male Wistar albino rats
Description: Solutions of PA-G and PA-S were administered intraperitoneally at a concentration of 1 mg/mL, and doses of 1, 5, 10, and 20 mg/kg were used. The solutions of zuranolone were administered intraperitoneally at a concentration of 1 mg/mL, and doses of 0.5, 1, 5, and 10 mg/kg were used. Controls were injected with CDX solution in a volume corresponding to the highest dose (i.e., 20 mL/kg). The same control group was used for PA-S and PA-G. Pentylenetetrazol (PTZ, Sigma Aldrich, Gillingham, Dorset, UK) was dissolved in water in a concentration of 50 mg/mL and was administered subcutaneously at a dose of 100 mg/kg 20 min after the administration of PA-G or PA-S. Each age and dose group comprised 8 animals. The rats were placed individually into plexiglass boxes and were then observed for 30 min after PTZ injection. The incidence, severity, and latencies of seizures were assessed. Younger animals were placed on a pad heated to 34 °C, i.e., to the temperature in the nest for the whole duration of the experiment because of immature thermoregulation. Generalized tonic-clonic or clonic seizures with a loss of righting reflexes were present after a dose of 100 mg/kg of PTZ in all control animals in both age groups. […] The severity of seizures was quantified using a five-point scale as follows: 0—no changes; 0.5—abnormal behaviour (e.g., automatisms, increased orienting reaction); 1—isolated myoclonic jerks; 2—atypical or prolonged minimal seizures; 3—clonic seizures (mS) involving head and forelimb muscles with preserved righting reflexes (older-term minimal pentetrazol seizures); 4—generalized seizures without the tonic phase (GCS); 5—complete generalized tonic-clonic seizures (GTCS).

postpartum depression = tested on: postpartum depression; design: method as in PMID 34190962; details: women with postpartum depression, Phase 3 clinical trial; cited from earlier work
[4] = P12 rats, i.p. doses of 5 and 10 mg/kg

CC(=O)[C@@]1(O)CCC2C3CC[C@@H]4C[C@H](O)CC[C@]4(C)C3CC[C@@]21C (stereo partly drawn) [17-OH-PA, 17-hydroxy-pregnanolone]
greatest response (α4β3γ2 GABAARs): 20% | proportion of the brain's 5β-steroids in the tissue ([1]; 20 min after PA-G administration): about three-quarters | fold increase in the concentration in the rat hippocampus above the basal levels ([1]; P12): 562 x | percentage of total significantly increased (5β) steroids in the rat hippocampus ([1]; P12): 73.7% | increase in concentration compared with basal levels ([1]; P12 animals): up to 560 fold | metabolite of PA-G identified in hippocampus ([1]; P12 vs. P25 animals, 20 min after PA-G administration): major metabolite | fold increase in the concentration in the rat hippocampus above the basal levels ([1]; P25): 35.8 x | percentage of total significantly increased (5β) steroids in the rat hippocampus ([1]; P25): 75.9% | increase in concentration compared with basal levels ([1]; P25 animals): 36 fold | concentration at 20 min ([1]; 12-day-old rats): 518 ng/g | concentration at 20 min ([1]; 25-day-old rats): 40.8 ng/g | maximum efficacy (α4β3δ GABAARs): 57% | EC50 (α4β3δ GABAARs; read-out: EC50 (potentiation of responses)): 3.5 µM

C[C@]12CC[C@H](OS(=O)(=O)O)CC1=CC[C@@H]1[C@@H]2CC[C@]2(C)C(=O)CC[C@@H]12 [Dehydroepiandrosterone sulfate (DHEA-S), 17-oxo-androst-5-en-3β-yl 3-sulfate]
desulfation [2]: > 50% | concentration at 20 min ([1]; 12-day-old rats): 4.86 ng/g | concentration at 20 min ([1]; 25-day-old rats): 1.52 ng/g

C[C@@]1(O)CC[C@H]2[C@H](CC[C@@H]3[C@@H]2CC[C@]2(C)[C@@H](C(=O)Cn4cc(C#N)cn4)CC[C@@H]32)C1 [zuranolone]
IC50 (GABAARs): 7 nM | development of GS [3, 4]: abolished | seizure severity [3, 4]: significant decrease in seizure severity | latencies of mS ([3]; P25 rats): increase in the latencies of mS | development of GS ([3]; P25 rats, all tested doses (0.5, 1, 5, 10 mg/kg i.p.)): completely suppressed development of GS | seizure severity ([3]; P25 rats, i.p. dose of only 1 mg/kg): significantly decreased seizure severity | development of mS ([3]; P25 rats, i.p. doses of 5 and 10 mg/kg): suppressed the development of mS | symptoms of depression (postpartum depression): improved the symptoms of depression
